# Literature values, collected in patent US20260146034A1, “1H-CYCLOPENTA[B]BENZOFURAN DERIVATIVES FOR THE PREVENTION AND TREATMENT OF VIRUS DISEASES” (priority 2022, published 2026).
# Columns and labels:
# [1] = test system: coronavirus; settings: J. Virology, 2011, 6381
# [2] = test system: SARS-COV-2; settings: eFFECTOR's Therapeutic, Apr. 30, 2020
# [3] = test system: corona viruses, SARS and MERS virus
# [4] = test system: RNA helicase enzyme elF4A; settings: previous studies
molecule,measurement,setting,value
4E2RCat,blocking coronavirus replication,[1],capable of blocking coronavirus replication
COc1cc2c(c(OC)n1)[C@]1(O)[C@H](O)[C@H](CN(C)C)[C@@H](c3ccccc3)[C@]1(c1ccc(C#N)cc1)O2 [Zotatifin],anti viral activity against SARS-COV-2,[2],shows anti viral activity
Silvesterol,"antiviral activity against corona viruses, SARS and MERS virus",[3],broadspectrum antiviral activity
same,inhibition of the RNA helicase enzyme elF4A,[4],potent and selective inhibitor
